Legend:
[1] = Pharmacokinetics of oral tablets in dogs; format: in vivo; settings: oral tablets 20 mg/dog, semaglutide: 300 mg SNAC, uncoated, MEDI7219: 100 mg NaCDC and 200 mg PG, pH 5.5 enteric, arithmetic mean (% CV)
[2] = oral semaglutide with SNAC; cited from earlier work
Text: Previous approaches to engineering peptide therapeutics include substitution with unnatural amino acids to protect proteolytically vulnerable sites, and lipidation to promote reversible serum protein binding and reduced renal clearance[40]–[42]. […] Ala[8] is replaced with artificial α-methyl-L-alanine to protect the peptide against serum DPP-IV and the peptide is mono-lipidated at Lys[26],[43]. Despite these modifications, semaglutide is still susceptible to rapid proteolytic degradation in th ...

dog plasma protein = test: EScalate equilibrium shift assay, dog plasma; format: in vitro ADME
[3] = Bioavailability after intraduodenal administration with permeation enhancers in rats; format: in vivo, rat; settings: single intraduodenal administration with permeation enhancers (NaCDC and PG), n = 4 per group
Experimental: Male Sprague Dawley rats (Charles River, Shrewsbury, MA, USA) weighing 250–275 g were housed with ad libitum access to standard chow and water. Test peptides were administered via either an intravenous or a duodenal catheter (4 rats per group) after overnight fasting, and food was returned following 4 h blood collection. Blood was collected via a jugular vein catheter at − 5, 15 and 30 min and 1, 2, 4, 8 and 24 h after intravenous dosing, or for intraduodenal groups at 15 min predose and 0.5, 1, 2, 4, 8, 24 and 48 h postdose. Blood was collected in K2EDTA tubes and kept on wet ice prior to 10 min centrifugation (3000 × g) at 5 °C ± 3 °C. Plasma samples were stored at − 70 °C until analysis.
Fifty or seventy μL aliquots of K2EDTA plasma samples were precipitated with 75% acetonitrile (Sigma-Aldrich) in water (J.T. Baker, Phillipsburg, NJ, USA) (v/v) and centrifuged at 2000 × g. The supernatant was dried under nitrogen at 60 °C, then cooled. Samples were reconstituted in 20% acetonitrile in water (v/v). […] Gradient separation was performed with water and 0.2% formic acid (Thermo Fisher Scientific, Waltham, MA, USA) as mobile phase A, and acetonitrile with 0.2% formic acid as mobile phase B. The method was qualified for the quantification range of 1–1000 ng/mL with accuracy and precision of ± 20%, except for at the lower limit of quantification when the accuracy and precision were ± 25%. Plasma concentrations were subject to noncompartmental analysis consistent with the route of administration using Phoenix WinNonlin (version 7.0, Certara, Princeton, NJ, USA).

FaSSIF/pancreatin = test: Fasted-state simulated intestinal fluid/pancreatin assay; format: in vitro ADME; settings: FaSSIF/USP pancreatin; analytical RP-HPLC
Experimental: Fresh FaSSIF and USP Pancreatin (FaSSIF/p; Sigma-Aldrich) was prepared according to Galia et al[55]. and used immediately. Peptides were dissolved in pre-warmed FaSSIF before addition of pre-warmed FaSSIF/pancreatin with agitation. Samples were analyzed by analytical RP-HPLC to determine remaining intact peptide by area under the curve.

human plasma protein = test: EScalate equilibrium shift assay, human plasma; format: in vitro ADME; settings: EScalate equilibrium shift assay
Experimental: (§1) Binding of peptides to human plasma proteins was determined by the EScalate equilibrium shift assay (Sovicell, Leipzig, Germany), using five dilutions of plasma in phosphate buffered saline and an assumed binding protein concentration of 600 µM. Samples were incubated for 1 h at room temperature then centrifuged to remove the HSA-coated beads. Supernatant samples were analyzed using HPLC (3 µm Phenomenex Aeris Widepore XB-C18 stationary phase) coupled to an electrospray ionization quadrupole time-of-flight mass spectrometer in high resolution accurate mass mode (Agilent, Santa Clara, CA, USA). Unbound fractions were calculated from the concentration-dependent shift in binding equilibrium according to fu=1/1+P/KDPlasma , where P is the concentration of the binding protein in plasma and KDPlasma is the dissociation constant of the compound from plasma proteins in solution.

[4] = set-up: method as in PMID 30429357; settings: oral semaglutide in dogs; cited from earlier work
monkey plasma protein = test: EScalate equilibrium shift assay, monkey plasma; format: in vitro ADME; settings: EScalate equilibrium shift assay
Experimental: [The procedure below names another species; the source lists this species under the same test.] as §1

rat plasma protein = test: EScalate equilibrium shift assay, rat plasma; format: in vitro ADME; settings: EScalate equilibrium shift assay

CC[C@H](C)[C@H](NC(=O)[C@H](Cc1ccccc1)NC(=O)[C@H](CCC(=O)O)NC(=O)[C@H](CCCCNC(=O)COCCOCCNC(=O)COCCOCCNC(=O)CC[C@H](NC(=O)CCCCCCCCCCCCCCCCC(=O)O)C(=O)O)NC(=O)[C@H](C)NC(=O)[C@H](C)NC(=O)[C@H](CCC(N)=O)NC(=O)CNC(=O)[C@H](CCC(=O)O)NC(=O)[C@H](CC(C)C)NC(=O)[C@H](Cc1ccc(O)cc1)NC(=O)[C@H](CO)NC(=O)[C@H](CO)NC(=O)[C@@H](NC(=O)[C@H](CC(=O)O)NC(=O)[C@H](CO)NC(=O)[C@@H](NC(=O)[C@H](Cc1ccccc1)NC(=O)[C@@H](NC(=O)CNC(=O)[C@H](CCC(=O)O)NC(=O)C(C)(C)NC(=O)[C@@H](N)Cc1cnc[nH]1)[C@@H](C)O)[C@@H](C)O)C(C)C)C(=O)N[C@@H](C)C(=O)N[C@@H](Cc1c[nH]c2ccccc12)C(=O)N[C@@H](CC(C)C)C(=O)N[C@H](C(=O)N[C@@H](CCCNC(=N)N)C(=O)NCC(=O)N[C@@H](CCCNC(=N)N)C(=O)NCC(=O)O)C(C)C [Semaglutide, semaglutide, reference compound]
AUC0-inf ([1]; n = 9): 1,440 (45.8) ng·h/mL
F (bioavailability, systemic fraction) ([1]; n = 9): 0.08 (45.8) %
F (bioavailability, systemic fraction) ([1]; n = 9, listed as semaglutide): 0.08%
t½ ([1]; plasma, LC/MS, n = 9): 60.5 (13.6) hours
bioavailability of oral formulation with SNAC [2]: 0.4–1%
peptide bound to plasma proteins, dog (dog plasma protein; EScalate equilibrium shift assay): over 97%
Fraction unbound peptide (%), dog (dog plasma protein; EScalate equilibrium shift, five dilutions of plasma in PBS, 1 h at room temperature, HPLC-QTOF MS): 0.37%
mean bioavailability (%F) [3]: 0.08%
time to complete degradation in FaSSIF/pancreatin (FaSSIF/pancreatin): less than 20 min
peptide bound to plasma proteins, human (human plasma protein): over 97%
published bioavailability (%F) in dogs [4]: 1.22%
peptide bound to plasma proteins, monkey (monkey plasma protein): over 97%
peptide bound to plasma proteins, rat (rat plasma protein): over 97%

— article PMC8602401 (Scientific Reports, 2021)
